Data taken from patent publication US7872015B2, “Methods involving PDE4, compositions, and the screening thereof, for the treatment of degenerative ocular pathologies” (Exonhit Therapeutics SA, priority 2003, dated 2011).

How the values were obtained:
[1] = target: T1, PBR (Homo sapiens, UniProt P30536); experiment: Mitochondrial-specific rhodamine 1,2,3 fluorescence in HeLa cells expressing the PBR; type: cell-based
T1 construct: endogenous in cells; host or cells: HeLa cells
Excerpt: The PBR is situated between the inner and outer mitochondrial membrane. It forms part of the transition pore complex, which participates in regulating mitochondrial flux by opening the mitochondrial pore. There exist molecules which display high affinity for PBR, particularly Ro5-4864 and PK11195.
By monitoring mitochondrial-specific fluorescence of rhodamine 1,2,3, the effects of PBR-specific ligands and those of etazolate could be followed.

[2] = Escalating single oral dose study in healthy male volunteers: tolerability; type: in vivo, humans; settings: oral capsules, single doses 0.5-20 mg
Experimental: (§1) In this study, increasing doses of etazolate (0.5, 1, 2, 5, 10 and 20 mg) were administered orally in the form of 0.5 and 5 mg capsules to different and sequential groups of eight young healthy male volunteers. This was a single-center, double-blind study in which two of the eight subjects received a placebo.
(§2) The following parameters were evaluated: clinical tolerability (adverse effects, clinical signs, changes in blood pressure or heart rate), electrocardiographic tolerability (recording of the ECG) and biological tolerability (hematology and blood biochemistry, urinalysis) for 24 hours after dosing. The product was assayed in plasma at different times before and after administration in each subject (0.25-0.50-1.00-1.50-2.00-3.00-4.00-5.00-6.00-8.00-10.00-12.00 and 24.00 hours). The product was also assayed in urine collected before and after administration (4, 4-8,8-12 and 12-24 hours).

[3] = tested on: ventral spinal cord cells; experiment: Excitotoxicity protection in primary ventral spinal cord cells (MTT test); type: cell-based, rat; settings: 100 μM NMDA + 10 μM D-serine, 3-hour incubation
Experimental: (§3) In this example, cerebellar granular neurons, cortical neurons and ventral spinal cord cells from rats were cultured according to methods known to those skilled in the art.
Cells were isolated from 14-day-old Wistar rat embryos. On arrival, gestating rats were sacrificed by carbon dioxide intoxication.
The chain of embryos was removed and placed in a dish containing PBS.
The spinal cord of each embryo was dissected and the ventral cord was separated from the dorsal cords. The ventral cords were then trypsinized at 37° C. for 20 minutes. Trypsinization was stopped by addition of Leibovitz 15 medium, 20% horse serum, supplement N2 (1×), 20% glucose (3.2 mg/ml), 7.5% bicarbonate (1.8 mg/ml) and 2 mM L-glutamine. The cells were dissociated by trituration. Clumps of tissue were removed and the dissociated cells were then quantified by trypan blue staining. The cells were seeded at 250,000 cells per cm^2 in neurobasal medium containing 2% horse serum, supplement B27 (1×), and 2 mM glutamine. […] After a 3-hour incubation with NMDA/D-serine as toxic agent and a 1-hour incubation with kainate, toxicity was measured by the MTT test. The results were normalized to the untreated mean and analyzed statistically with a Wilcoxon test with p<0.05.
(§4) Toxicity was measured with the MTT test. […] Absorbance at 550 nm was measured and the percentage viability was calculated.

[4] = Escalating single oral dose study in healthy male volunteers: plasma assays; type: in vivo; settings: humans, at high doses
Experimental: as §1, §2

[5] = tested on: cortical neurons; experiment: Excitotoxicity protection in primary cortical neurons (MTT test); type: cell-based, rat; settings: etazolate 1 hour before toxic agents, 6-hour incubation
Experimental: as §3
Wistar rat embryos aged 16 days were removed and the cortex dissected. After trypsination at 37° C. for 25 minutes, the cells were dissociated by trituration, then seeded in minimum essential medium supplemented with 10% horse serum, 10% fetal calf serum and 2 mM glutamine, at a density of 300,000 cells per cm^2. After 4 days of culture, half the medium was replaced with minimum essential medium supplemented with 5% horse serum and 2 mM glutamine. The same day, the antimitotic 5-fluoro-2-deoxyuridine (10 μM) was added. After 7 and 11 days of culture, half the medium was replaced with conditioned medium composed of MEM supplemented with 5% horse serum and 2 mM glutamine; prior to use this medium was passed overnight on a layer of cortical astrocytes. On day 14, the cells were treated with the inhibitor compound etazolate, 1 hour before adding the toxic agents 50 μM kainate or 20 μM N-methyl-D-aspartate in the presence of 10 μM D-serine. […] After a 6-hour incubation, toxicity was measured by the MTT test. The results were normalized to the untreated mean and analyzed statistically with a Wilcoxon test. […]
as §4

[6] = tested on: cerebellar granular cells; experiment: Excitotoxicity protection in primary cerebellar granular cells (MTT test); type: cell-based, rat; settings: etazolate three hours before toxic agents, 6-hour incubation
Experimental: In this example, cerebellar granular neurons, cortical neurons and ventral spinal cord cells from rats were cultured according to methods known to those skilled in the art. Seven-day-old Wistar rats were decapitated and brains were dissected. The meninges were removed and the tissue was then cut into small pieces and trypsinized for 15 minutes at 37° C. Cells were dissociated by trituration, then placed in culture at a density of 300,000 cells per cm^2 in Eagle basic medium supplemented with 10% fetal calf serum and 2 mM glutamine. The next day, 10 μM ARA-C, an antimitotic agent, was added to prevent proliferation of glial cells. The cells were treated on day 9 of culture with the inhibitor compound etazolate, three hours before adding the toxic agents 50 μM kainate or 100 μM N-methyl-D-aspartate in the presence of 10 μM D-serine. Immediately before adding the toxic agents, 8-bromo-cAMP was added. All treatments were done at least in duplicate and in at least two different cultures. After a 6-hour incubation, toxicity was measured by the MTT test. The results were normalized to the untreated mean and analyzed statistically with a Wilcoxon test. The level of significance was p≦0.05. Toxicity was measured with the MTT test. […] Absorbance at 550 nm was measured and the percentage viability was calculated.

[7] = tested on: retinal explants from rd1 mice; experiment: Retinal explant cultures from rd1 mice, histopathology of photoreceptors; type: cell-based; settings: 2 μM etazolate, versus untreated explants
Experimental: This example describes the effects of a PDE4 inhibitor on retina of rd1 mice, which are characterized by a loss of visual cells starting two weeks after birth. For each etazolate concentration (0.02 μM, 0.2 μM, 2 μM and 20 μM), six retinal explants from rd1 mice were cultured for 21 days. The culture was started on postnatal day 7 in medium free of bovine fetal serum but containing etazolate at the indicated concentration. Six retinal explants from the same animals were used as controls for the treated explants. In this case, the explants were grown in culture medium alone or in culture medium containing the vehicle used for etazolate. For both conditions (control and treatment), the culture medium was changed every two days. After 21 days of culture, the explants were fixed, sectioned and labelled for histopathologic studies. Explants from untreated rd1 mice (postnatal day 28) lost most of their photoreceptors in culture, and the presence of an increase in photoreceptors was then detected by counting the remaining photoreceptors.

T1 sequence (P30536 whole entry): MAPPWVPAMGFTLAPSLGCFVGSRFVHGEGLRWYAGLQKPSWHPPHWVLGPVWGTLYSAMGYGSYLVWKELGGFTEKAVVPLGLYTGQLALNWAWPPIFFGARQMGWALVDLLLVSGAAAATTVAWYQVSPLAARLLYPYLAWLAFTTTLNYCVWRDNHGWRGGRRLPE

In the case of `CCC(C)N(C)C(=O)c1cc2ccccc2c(-c2ccccc2Cl)n1` (stereo not shown) [PK11195], the “mitochondrial-specific fluorescence of rhodamine 1,2,3” value (“mitochondrial-specific fluorescence” for short) [1] is reported as “loss of fluorescence”.
With `CN1C(=O)CN=C(c2ccc(Cl)cc2)c2cc(Cl)ccc21` [Ro5-4864] the “mitochondrial-specific fluorescence” value [1] was “loss of fluorescence”.
In the case of `CCOC(=O)c1cnc2c(cnn2CC)c1NN=C(C)C` [etazolate], the side effects [2] is reported as “did not cause any side effects”, the “tolerability (clinical, electrocardiographic, biological)” value ([2]; 24 hours after dosing) is reported as “well tolerated” and the “protective effect on NMDA/serine-induced toxicity” value [3] is reported as 36%. For the same compound, the “absorption (plasma assays)” value [4] was “good”, the “protective effect on NMDA/serine-induced toxicity” value ([5]; 20 μM N-methyl-D-aspartate + 10 μM D-serine) was 33% and the “protective effect on kainate-induced toxicity” value ([5]; 50 μM kainate) was 25%. For the same compound, the “mitochondrial-specific fluorescence” value [1] was “induced the same loss of fluorescence as the PBR-specific ligands”, the “protective effect on kainate-induced toxicity” value ([6]; 50 μM kainate) was 57% and the “protective effect on NMDA/serine-induced toxicity” value ([6]; 100 μM N-methyl-D-aspartate + 10 μM D-serine) was 60%. The “preservation of photoreceptors (photoreceptor layer)” value ([7]; rd1 retinal explants cultured 21 days from postnatal day 7) was “much better preserved” and the “number of picnotic cells” value ([7]; rd1 retinal explants cultured 21 days) was “marked reduction”.
